Assay results taken from a melting point compilation (Tetko et al.; mined from patent text by program, amines drawn as free bases though some values may be those of a salt).

Row | Structure (SMILES) | melting point [°C]
1 | C[C@H]1C=CC2=C[C@@H](O)C[C@H](OC(=O)C(C)(C)Oc3ccc(F)cc3)[C@@H]2[C@H]1CC[C@@H]1C[C@@H](O)CC(=O)O1 | 142 to 145
2 | CCOC(=O)COc1coc(CCl)cc1=O | 98 to 100
3 | C[C@@H](CSC(F)(F)C(F)F)[C@](O)(Cn1cncn1)c1ccc(Cl)cc1Cl | 61 to 63
4 | CS(=O)(=O)Nc1ccc(-c2cc(-c3c(-c4cccc(Cl)c4)nc4ccccn34)ccn2)cc1 | 60
5 | CC1(C#N)CN(C(c2ccccc2)c2ccccc2)C1 | 78 to 80
6 | CCOC(=O)C(Cc1ccc2ccc3cccc4ccc1c2c34)(NC(C)=O)C(=O)OCC | 135 to 140
7 | Cc1c(CC(=O)OCCCCO)cc(-c2ccc(S(C)(=O)=O)cc2)n1-c1ccc(F)cc1 | 149 to 151
8 | CO[C@@H]1CN(CCCNc2nccc(=O)[nH]2)CC[C@@H]1NC(=O)c1cc(Cl)c(N)c2c1OC(C)(C)C2 | 164
9 | N#Cc1c(N2CCN(C(=O)c3ccco3)CC2)c2cc(F)cnc2n(Cc2cccc(F)c2)c1=O | 211
10 | ON=C1CCCCC12OCCO2 | 97 to 98
11 | Clc1cc(-n2cncn2)ncn1 | 93 to 97
12 | Oc1ccc2oc3ccccc3c2c1Cn1c(=S)sc2ccccc21 | 174 to 180
13 | CC1CNC(CC(c2ccccc2)c2ccccc2)=N1 (stereo not drawn) | 55 to 57
14 | O=C1NC(=O)C(Nc2ccc(CCNCC(O)c3cccnc3)cc2)S1 (stereo not drawn) | 46 to 48
15 | CCOC(=O)c1ccc(N2CCN(CC(=O)c3ccc(Cl)cc3)CC2)cc1 | 150 to 152
16 | O=C(O)c1cc(S(=O)(=O)N2CCCC(OCc3ccccc3)C2)ccc1Cl (stereo not drawn) | 173 to 174
17 | CC(CO)NC(=O)NCCCCC1CCSS1 (stereo not drawn) | 87 to 89
18 | Cc1ccc([N+](=O)[O-])cc1Nc1nccc(-c2ccc(Cl)nc2)n1 | 210 to 212
19 | CC(Cl)(Cl)c1nc2c(C(F)(F)F)cccc2c(=O)o1 | 120
20 | Cc1cc(C=O)ccc1-c1ccccc1C(F)(F)F | 127 to 130
21 | Cc1cc(C)c2nc(-c3cnc(NCCCC4CCN(C)CC4)nc3C)[nH]c2c1 | 179
22 | NC(C(=O)OC1CCCCC1)C(=O)OC1CCCCC1 | 46 to 47
23 | Nc1nc2ccc3ccccc3c2s1 | 258 to 260
24 | COc1ccc(C(=CNC(=O)c2sc3ccc(C(F)(F)F)cc3c2O)c2ccc(OC)cc2)cc1 | 178 to 183

Row | Structure (SMILES) | melting point [°C]
25 | FCCOc1ccc(COCOc2ccc(Cl)cc2)cc1 | 60.7 to 61.6
26 | Cc1nc(N2CCc3ccccc3CC2)c(C#N)c(=O)n1C(F)F | 143
27 | CC1CN(Cc2ccccc2)Cc2c(C=O)c(-c3ccccc3)n(Cc3ccccc3)c21 (stereo not drawn) | 120 to 121
28 | CCOC(=O)c1ccc(CNc2ccncc2[N+](=O)[O-])cc1 | 166 to 168
29 | COc1ccc(-c2[nH]nc3c2C(=O)c2c(NC(=O)NCc4ccc(N)cc4)cccc2-3)cc1 | > 300
30 | CCC(Oc1cc(Cl)cc(Cl)c1)C(=O)NC(C)(C)C#CCOC (stereo not drawn) | 103 to 104
31 | CCOP(=O)(CCN1CCC(N(C)S(=O)(=O)c2ccc(Nc3nccc(Nc4ccc(F)c(F)c4)n3)cc2)CC1)OCC | 93 to 96
32 | Cc1nc(C)c(C(C)(O)c2ccoc2)o1 (stereo not drawn) | 93 to 95
33 | CCCc1ccc(-c2ccc(-c3ccc(CC)cc3)cc2F)s1 | 41
34 | Cc1ccnc(C(=O)n2cc(CC(=O)N(C)C)c3ccc(Cl)cc32)c1 | 208
35 | O=C(CCc1c[nH]c2ccccc12)NCC1CNc2ccccc2O1 (stereo not drawn) | 145 to 146
36 | Oc1cccc(-c2ccc3cc(O)ccc3c2)c1 | 192 to 194
37 | CS(=O)(=O)N1CCC(Nc2nc(Nc3ccc(F)c(C(=O)N4CCOCC4)c3)nc(OCC(F)(F)F)n2)CC1 | 217 to 219
38 | Cc1oc(-c2ccccc2)nc1COc1ccc(CCCO)cc1 | 70 to 71
39 | O=C(Nc1ccc(OCCN2CCOCC2)c2ccccc12)c1cccc(-c2cccnc2)c1 | 77 to 78
40 | CCC(=O)NCCC1=CCC2=C1C1=C(CC2)OCCC1 | 85 to 88
41 | COC(=O)CCSCCOC1OC(COC(C)=O)C(OC(C)=O)C(OC(C)=O)C1OC(C)=O (stereo not drawn) | 81 to 82
42 | Cc1cc(-c2nc3cccnn3c2-c2ccnc(NC(=O)c3ccccc3)c2)ccc1F | 189 to 190
43 | Cn1cnc(COc2n[nH]c(C=O)c2-c2ccccc2)n1 | 202 to 205
44 | O=c1nc(-c2ccc(-c3ccccc3)cc2)sc2ccccc12 | 170 to 171
45 | Nc1ncnc2c1c(-c1ccccc1Oc1ccccc1)cn2C1CCCC1 | 109 to 110
46 | CS(=O)(=O)c1ccc(C(O)C(CF)NC(=O)C(F)F)cc1 (stereo not drawn) | 141 to 142
47 | CCN(CC)CCCCC(=O)c1ccc2c(c1)Cc1cc(C(=O)CCCCN(CC)CC)ccc1-2 | 78 to 80
48 | CC(=O)C(Cc1nsc2ccc(-n3c(=O)cc(C(F)(F)F)n(C)c3=O)cc12)C(=O)OC(C)(C)C (stereo not drawn) | 76 to 78

Row | Structure (SMILES) | melting point [°C]
49 | CC(=O)C(=[N+]=[N-])C(=O)OCc1ccc([N+](=O)[O-])cc1 | 132
50 | CC(C)c1ccc(NC(=O)Nc2cccc(C(=O)O)c2)cc1 | 295 to 300
51 | O=P(O)(O)CCCCCCCCCCCCCCCCCCCCCCC(F)(F)C(F)(F)C(F)(F)C(F)(F)F | 106 to 108
52 | CCSC/C=C\c1cc(F)c2ncc(C(=O)NCc3ccc(Cl)cc3)c(O)c2c1 | 203 to 205
53 | CC(C)c1ccc(C(Cl)=NOS(C)(=O)=O)cc1 | 79.5 to 82
54 | CCSc1nc(Cl)nc2cccnc12 | 101 to 103
55 | CC[C@H](NS(=O)(=O)c1ccc(OC)cc1)C(=O)OC(C)(C)C | 82
56 | CCCCCC[C@H](C)Oc1ccc(-c2ccc(O)cc2)cc1 | 100
57 | CCOC(=O)c1cn(-c2ccccc2)c2c(F)c(F)c(F)cc2c1=O | 190 to 192
58 | CC1=C(O)C(=O)C(C)(CC2(O)C=CC=CC2)O1 (stereo not drawn) | 122 to 124
59 | CCOC(=O)c1cnn(-c2ccc(C=O)cc2)n1 | 126 to 129
60 | CC1=CCC(O)(C(C)(C)Sc2ccccc2)CC1 (stereo not drawn) | 73 to 74
61 | CCOC(=O)c1cc(N)nn1C | 57 to 58
62 | CCc1cccc(-c2[nH]c(C(C)C)nc2-c2cccc(-c3ccc(S(C)(=O)=O)cc3)c2)n1 | 108 to 110
63 | CC(C)Cc1nn(C)c(=O)c2cn(Cc3cccc4ccccc34)nc12 | 166 to 167
64 | O=C(O)c1nc(-c2ccc(-c3ccccc3)cc2)nc2ccccc12 | 175 to 176
65 | Cc1cc(C)cc(NC(=O)[C@@H](C)N)c1 | 134 to 136
66 | CCC1CCC(C)N(C(=O)CN(C(=O)CNC(=O)Nc2cccc(C)c2)c2ccccc2)C1 (stereo not drawn) | 158
67 | CN1CCc2sc(C=C3C(=O)N4C(C(=O)O)=CSC34)cc2C1 (stereo not drawn) | > 25
68 | CNC(=O)Cn1c(-c2ccc([N+](=O)[O-])cc2)nc2cccnc21 | > 260
69 | CCN1CCCC1CNC(=O)c1cc(S(N)(=O)=O)cc2c1OC(C)C2 (stereo not drawn) | 164 to 165
70 | CC(C)Oc1ccc2c(c1)N(CCCN1CCC(CCO)CC1)c1cccc(S(C)(=O)=O)c1S2 | 50

Now from value to compound:

Row | melting point [°C] | Structure (SMILES)
71 | 125 to 127 | COc1cc(/C=C/c2ccc(C)cc2)cc(OC)c1OC
72 | 62 to 63 | CC(C)NCC(O)COc1ccc(CCOCC2CCC2)cc1 (stereo not drawn)
73 | 125 to 126 | CCOC(=O)C1=CC2(CCC1S(=O)(=O)Nc1ccc(F)cc1Cl)CC2 (stereo not drawn)
74 | 256 | Cn1c(=O)c(C#N)c(Cl)c2cc(Cl)ccc21
75 | 140 to 141 | CNC(=O)c1ccc2[nH]ccc2c1
76 | 184 | Cn1cc(-c2cc(F)c(F)c(OC3SCC(O)C(O)C3O)c2)cn1 (stereo not drawn)
77 | 141 to 142 | COc1cc2c(c3c1OC(C)(C)C3)C(c1cccc(C(=O)NCC(N)=O)c1)=NC(C)(C)C2
78 | 96 to 97 | CN(C)c1ccc(C2OC(C)(C)N=C2c2cccc(Cl)c2)cc1 (stereo not drawn)
79 | 118 to 120 | COc1ccc(F)cc1C(C)(C)CC(C)(O)Cc1cc2ccccc2[nH]1 (stereo not drawn)
80 | 96 to 97 | COc1ccc2c(c1)CCC(CNC(C)=O)C2 (stereo not drawn)
81 | 172 to 173 | CNC(=O)c1cccc(NC(=O)COc2ccccc2Cl)c1
82 | 86 to 87 | COc1cc(COC(=O)CCc2nc(-c3ccc(Cl)cc3)co2)cc(OC)c1OC
83 | 198 to 201 | CCC1c2cccn2-c2ccc(Cl)cc2N1C(=O)c1ccc(O)cc1O (stereo not drawn)
84 | 130 | Cc1cc(=O)n(-c2ccc(C(F)(F)F)cc2)[nH]1
85 | 143 to 146 | COc1cc2c(cc1C(O)c1ccccc1)C=C2C(=O)O (stereo not drawn)
86 | 158 to 161 | COc1cc(C2NCCS2)ccc1O (stereo not drawn)
87 | 223 to 225 | COc1cc(S(C)(=O)=O)ccc1-c1nc2cc3c(cc2[nH]1)N(C(C)=O)CC3(C)C

Row | melting point [°C] | Structure (SMILES)
88 | 174 to 176 | CS(=O)(=O)Nc1ccc(F)c(C(=O)C[N+](=O)[O-])c1
89 | 91 to 92 | COc1cnc(CO)c(C)c1OC
90 | 175 to 176 | CCOC(=O)C1=C(C)NC(N)=C(C(=O)OC(C)C)C1c1cccc([N+](=O)[O-])c1 (stereo not drawn)
91 | > 250 | Cc1cc(COc2ccc(C(N)=O)cc2)c2c(N)c(C(N)=O)sc2n1
92 | 232 to 238 | O=C1Cn2ncnc2-c2cc(F)ccc2N1
93 | 152 to 154 | COc1ccc2ncccc2c1N
94 | 132 to 134 | COc1cc2c(cc1F)OCC21C(=O)N(Cc2ccc(C(F)(F)F)o2)c2ccccc21 (stereo not drawn)
95 | 117 to 122 | CCCCc1nc2c(c(=O)[nH]1)CN(C(=O)OCc1ccccc1)CC2
96 | 112 to 113 | COC(=O)/C(N)=C/C(=O)/C=C/c1ccc(Cl)cc1
97 | 178 to 179 | Cc1cccc2c1nc(-c1ccccc1F)n2CC(O)C(C)(C)C (stereo not drawn)
98 | 63 to 65 | COc1cccc(C(=O)c2cc3ccc(OC)cc3o2)c1
99 | 138 to 139 | COc1ccc(C(=O)CC(=O)c2snc(Cl)c2Cl)cc1
100 | 106 to 109 | COc1ccc(SC2(CCCC#Cc3ccc(Cl)cc3)SC(=O)NC2=O)cc1 (stereo not drawn)
101 | 142 to 143 | COC(=O)c1nn(C2CCCCO2)cc1NC(=O)c1ccc(C)nc1 (stereo not drawn)
102 | 190 to 191 | O=C1NC(=C2CCCC2)Sc2ccccc21
103 | 242 to 244 | O=S1(=O)N=CN(C2CC2)c2ccc(Br)cc21
